Test results as given in publication PMC9600550, “The pH Robustness of Bacterial Sensing” (mBio, 2022).
Where two headings read alike, the source gives them in different places.

Legend:
AdmX-LBD = AdmX-LBD (Serratia plymuthica, UniProt P0DV33); experiment: ITC titration of AdmX-LBD with indole-3-pyruvic acid at different pH; assay type: binding, Serratia plymuthica A153
PcaY_PP-LBD = target: T1, PcaY_PP-LBD (Pseudomonas putida, UniProt Q88JK6); experiment: ITC titration of PcaY_PP-LBD with quinate at different pH; assay type: binding, P. putida KT2440
T1 construct: made in house
Protocol: To assess the pH dependence of ligand-binding, freshly purified proteins were dialyzed overnight into the buffers described in Table S1 and submitted to microcalorimetric titration.
Freshly purified proteins were dialyzed into the buffers specified in Table S1 and introduced into the sample cell of an VP-microcalorimeter (MicroCal). Proteins at 15 to 100 μM were titrated with 0.25 to 10 mM ligand solutions that were made up in dialysis buffer. For pH-active ligands, the pH of the ligand solutions was adjusted to that of the dialysis buffer by the addition of concentrated HCl or NaOH. Titrations of MBP and McpV-LBD were conducted at 15°C to favor endothermic contributions to binding heats, whereas the remaining titrations were carried out at 25°C. Raw titration data were integrated, corrected for ligand-dilution heats and normalized with the ligand concentrations. Resulting data were fitted with the “One Binding site model” of the MicroCal version of ORIGIN. Provided are the dissociation constants derived from one experiment and the error of curve-fitting.

CtpM-LBD = target: T2, CtpM-LBD (Pseudomonas aeruginosa, UniProt Q9I0I6); experiment: ITC titration of CtpM-LBD with L-malate at different pH; assay type: binding, P. aeruginosa PAO1
T2 construct: containing a DNA fragment encoding the CtpM (PA2652)-LBD; made in house

McpS-LBD = target: T3, McpS-LBD (Pseudomonas putida, UniProt Q88E10); experiment: ITC titration of McpS-LBD with L-malate at different pH; assay type: binding, P. putida KT2440; details: 25°C
T3 construct: pET28b(+) derivative containing a DNA fragment encoding the McpS-LBD; made in house

McpS-Tar = target: T4, McpS-Tar (UniProt P07017+Q88E10); experiment: FRET (CheY-YFP/CheZ-CFP) chemotaxis pathway response, McpS-Tar hybrid as sole chemoreceptor; assay type: cell-based; details: E. coli VS181 with McpS-Tar as sole chemoreceptor, read-out: EC50 (half-maximal effective concentration), FRET titration
T4 construct: 295]-Tar[200-553] receptor; expressed in transfected cells; host or cells: receptorless E. coli VS181, plasmid pSB10 (pKG116 derivative)

(UniProt A0A4D6XHN3) = experiment: ITC titration of E6B08_RS28125 with L-ornithine at different pH; assay type: binding, P. putida 1290; details: 25°C, pH 9.0, read-out: KD at pH optimum
McpH-LBD = target: T5, McpH-LBD (Pseudomonas putida, UniProt Q88R14); experiment: ITC titration of McpH-LBD with adenine at different pH; assay type: binding, P. putida KT2440; details: 25°C
T5 construct: pET28b(+) derivative containing a DNA fragment encoding the McpH-LBD; made in house

PctA-LBD = target: T6, PctA-LBD (Pseudomonas aeruginosa, UniProt G3XD24); experiment: ITC titration of PctA-LBD with L-alanine at different pH; assay type: binding, P. aeruginosa PAO1
T6 construct: pET28b(+) derivative containing a DNA fragment encoding the PctA-LBD; made in house

P. aeruginosa PAO1 = experiment: Quantitative capillary chemotaxis assay at different pH; assay type: cell-based; details: 1 mM ligand
Protocol: We evaluated the effect of pH on P. aeruginosa chemotaxis to L-Ala, a ligand of the PctA chemoreceptor, using the quantitative capillary chemotaxis assay. Prior to performing these assays, we evaluated cell viability and motility at different pH values. We grew cells in minimal medium to an OD660 of 0.4, washed twice with chemotaxis buffer at the different pH values, resuspended in the corresponding buffer, and incubated for 1 h. Cells were then plated out to assess cell viability. […] We then determined the effect of different pH on the chemotactic responses to L-Ala.
Chemotaxis assays were performed as previously described ([79]) with some modifications. When cultures reached an OD660 of 0.4, the cells were gently washed twice with chemotaxis buffer at different pH and then resuspended in fresh buffer. The chemoeffector solutions were prepared in the corresponding chemotaxis buffer. Data are the means and standard deviations of at least 3 biological replicates conducted in triplicate.

[1] = target: the molecule itself; experiment: AUC; sedimentation velocity with 1 mM L-Asp, 35 uM protein, pH 3.5, 5.0, 7.0 and 10.0, 10°C, 42,000 rpm; monomer to dimer
[2] = ITC, 25°C, defined as binding with a KD below 1 mM
[3] = 25°C, defined as binding with a KD below 1 mM
[4] = defined as binding with a KD below 1 mM

T2 sequence (Q9I0I6 33-205): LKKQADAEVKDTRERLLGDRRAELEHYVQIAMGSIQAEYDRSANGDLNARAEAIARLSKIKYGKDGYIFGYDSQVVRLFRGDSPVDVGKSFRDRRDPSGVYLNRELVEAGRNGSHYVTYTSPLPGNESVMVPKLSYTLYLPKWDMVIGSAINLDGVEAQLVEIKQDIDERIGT
T4 sequence (Q88E10+P07017 fused): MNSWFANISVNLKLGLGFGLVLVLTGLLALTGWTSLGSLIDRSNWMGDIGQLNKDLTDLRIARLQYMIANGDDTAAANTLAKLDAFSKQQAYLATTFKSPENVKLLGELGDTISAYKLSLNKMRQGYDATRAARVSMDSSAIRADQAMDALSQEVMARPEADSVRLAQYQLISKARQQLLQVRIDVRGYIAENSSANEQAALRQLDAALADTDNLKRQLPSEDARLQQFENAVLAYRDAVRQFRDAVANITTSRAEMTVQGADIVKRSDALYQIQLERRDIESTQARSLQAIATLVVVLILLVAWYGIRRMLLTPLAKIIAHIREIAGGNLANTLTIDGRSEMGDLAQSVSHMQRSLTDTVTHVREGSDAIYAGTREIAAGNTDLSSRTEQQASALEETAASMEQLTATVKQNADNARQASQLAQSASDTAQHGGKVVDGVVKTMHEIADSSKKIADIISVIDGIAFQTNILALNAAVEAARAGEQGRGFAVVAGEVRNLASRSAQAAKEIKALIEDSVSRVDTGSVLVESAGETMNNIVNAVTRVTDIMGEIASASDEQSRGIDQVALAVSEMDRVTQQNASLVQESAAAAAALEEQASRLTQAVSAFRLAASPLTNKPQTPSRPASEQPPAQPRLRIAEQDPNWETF
T3 sequence (Q88E10 41-283): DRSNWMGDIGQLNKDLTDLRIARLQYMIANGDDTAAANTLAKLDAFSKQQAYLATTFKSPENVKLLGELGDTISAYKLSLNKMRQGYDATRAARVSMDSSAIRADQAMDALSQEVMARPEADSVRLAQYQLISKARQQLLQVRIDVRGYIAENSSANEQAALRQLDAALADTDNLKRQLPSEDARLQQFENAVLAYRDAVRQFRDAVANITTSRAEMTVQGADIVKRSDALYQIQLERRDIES
T6 sequence (G3XD24 32-276): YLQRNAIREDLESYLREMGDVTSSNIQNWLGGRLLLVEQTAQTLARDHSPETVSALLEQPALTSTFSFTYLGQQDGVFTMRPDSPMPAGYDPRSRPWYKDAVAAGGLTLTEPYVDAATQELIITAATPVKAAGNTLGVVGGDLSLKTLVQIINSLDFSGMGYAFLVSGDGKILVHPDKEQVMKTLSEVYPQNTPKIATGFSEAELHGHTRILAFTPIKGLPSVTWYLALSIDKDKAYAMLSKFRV
T1 sequence (Q88JK6 44-196): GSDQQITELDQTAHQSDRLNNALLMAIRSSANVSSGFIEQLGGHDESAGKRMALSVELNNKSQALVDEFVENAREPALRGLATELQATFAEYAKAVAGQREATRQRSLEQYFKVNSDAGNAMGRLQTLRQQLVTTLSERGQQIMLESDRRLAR
Sequence of AdmX-LBD (P0DV33 91-304): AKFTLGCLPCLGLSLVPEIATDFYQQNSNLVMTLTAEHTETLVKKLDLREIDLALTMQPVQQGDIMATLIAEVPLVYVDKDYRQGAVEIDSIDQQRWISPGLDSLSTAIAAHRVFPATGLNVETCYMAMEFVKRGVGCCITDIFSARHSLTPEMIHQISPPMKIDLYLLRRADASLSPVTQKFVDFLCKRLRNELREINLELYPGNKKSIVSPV
T5 sequence (Q88R14 51-276): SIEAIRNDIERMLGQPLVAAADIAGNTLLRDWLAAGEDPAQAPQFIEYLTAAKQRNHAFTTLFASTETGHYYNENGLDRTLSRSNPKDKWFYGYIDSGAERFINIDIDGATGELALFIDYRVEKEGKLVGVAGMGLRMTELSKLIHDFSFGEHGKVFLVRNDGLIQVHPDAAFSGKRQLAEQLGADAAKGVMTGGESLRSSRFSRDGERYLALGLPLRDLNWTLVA
Sequence of (UniProt A0A4D6XHN3) (A0A4D6XHN3 24-265 limits assumed): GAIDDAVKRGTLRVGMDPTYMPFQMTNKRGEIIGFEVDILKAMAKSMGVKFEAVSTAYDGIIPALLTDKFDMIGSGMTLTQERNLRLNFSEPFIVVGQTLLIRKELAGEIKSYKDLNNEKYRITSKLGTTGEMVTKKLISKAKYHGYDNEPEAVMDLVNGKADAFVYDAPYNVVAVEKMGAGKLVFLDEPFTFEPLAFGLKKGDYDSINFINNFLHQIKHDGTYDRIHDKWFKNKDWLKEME

O=C(O)C(=O)Cc1c[nH]c2ccccc12 [Indole-3-pyruvic acid]
Kd (AdmX-LBD): 12700 nM | pH optimum (AdmX-LBD; ITC, 25°C): 8.0 | pH range of binding (AdmX-LBD; [2]): 7.5-8.0

O=C(O)[C@]1(O)C[C@@H](O)[C@@H](O)[C@H](O)C1 [Quinate]
Kd (PcaY_PP-LBD): 1220 nM | pH optimum (PcaY_PP-LBD; ITC, 25°C): 5.0 | pH range of binding (PcaY_PP-LBD; [2]): 3.5-11.5 | width of pH profile of binding (PcaY_PP-LBD; ITC, pH 3.5-11.5): 8 pH units

O=C(O)C[C@H](O)C(=O)O [L-malate]
width of pH range of high-affinity binding (CtpM-LBD): 4.5 pH units | pH optimum (CtpM-LBD; 25°C): 6.5 | pH range of binding (CtpM-LBD; [3]): 4.5-9.0 | Kd (CtpM-LBD; 25°C, pH 6.5, read-out: KD at pH optimum): 38700 nM | pH optimum (McpS-LBD): 5.5 | pH range of binding (McpS-LBD; [4]): 3.0-10.0 | Kd (McpS-LBD; pH 5.5, read-out: KD at pH optimum): 4000 nM | EC50 (McpS-Tar; pH 5.5): 9380 ± 1900 nM | EC50 (McpS-Tar; pH 7.0): 2180 ± 410 nM | EC50 (McpS-Tar; pH 8.5): 7660 ± 1900 nM

NCCC[C@H](N)C(=O)O [L-ornithine]
Kd ((UniProt A0A4D6XHN3)): 660 nM

Nc1ncnc2[nH]cnc12 [Adenine]
pH optimum (McpH-LBD): 5.0 | pH range of binding (McpH-LBD; [4]): 3.5-10.0 | Kd (McpH-LBD; pH 5.0, read-out: KD at pH optimum): 1680 nM

C[C@H](N)C(=O)O [L-alanine]
pH optimum (PctA-LBD; 25°C): 5.5 | pH range of binding (PctA-LBD; [3]): 3.0-11.5 | Kd (PctA-LBD; average over the pH range 3.0 to 11.0, read-out: average dissociation constant (KD)): 1260 ± 700 nM | Kd (PctA-LBD; pH 3.0, read-out: dissociation constant (KD)): 1300 nM | width of pH range of high-affinity binding (PctA-LBD; pH 3.0 to 11.5): 8.5 pH units | Kd (PctA-LBD; pH 9.0, read-out: dissociation constant (KD)): 910 nM | Kd (PctA-LBD; pH 11.0, read-out: dissociation constant (KD)): 3900 nM | pH of optimal chemotactic responses (P. aeruginosa PAO1): 7.0

B1: Tar-LBD (ligand-binding domain of the aspartate chemoreceptor Tar of E. coli) (domain or fragment, E. coli K12, UniProt P07017 31-188, looked up)
chain: SSLHHSQKSFVVSNQLREQQGELTSTWDLMLQTRINLSRSAVRMMMDSSNQQSNAKVELLDSARKTLAQAATHYKKFKSMAPLPEMVATSRNIDEKYKNYYTALTELIDYLDYGNTGAYFAQPTQGMQNAMGEAFAQYALSSEKLYRDIVTDNADDYR
notes: Cloned into the NdeI and BamHI sites of pET28b(+) and purified on a HisTrap column; In solution it is a rapidly interchanging mixture of monomer and dimer; also called E. coli Tar-LBD; LBD of the Tar chemoreceptor; source: E. coli BL21(DE3), purified (HisTrap)
stoichiometry N [1]: 2
